From patent US20230085307A1, “PYRIDAZINONE COMPOUND AND HERBICIDE” (NISSAN CHEMICAL CORPORATION, priority 2019, published 2023)

Legend:
barnyard grass [1] = experiment: Test Example 4: herbicidal effect by soil treatment (Table 19, symbol H); assay type: in vivo, barnyard grass (Echinochloa crus-galli); details: amount of applied herbicide 320 g/ha
Outline: (§1)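 Soil-surface application: an emulsion agent diluted with water to the predetermined dose is sprayed uniformly over seeds lying under roughly 1.5 cm of sterilized diluvial soil. Boxes stay in a greenhouse at 25° C. to 30° C. Three weeks later, each species is graded on previously defined criteria.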

Italian ryegrass [2] = experiment: Test Example 5: herbicidal effect by foliage application, plastic box (Table 20, symbol K); assay type: in vivo, Italian ryegrass (Lolium multiflorum); details: foliage application, 320 g/ha, evaluated three weeks after application
Outline: (§2)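 Sow seeds spot-wise in sterilized diluvial soil; cover with ~1.5 cm soil. Grow 14 days in greenhouse, 25° C. to 30° C. Spray foliage with emulsion diluted to predetermined amount. Rate effect after 3 weeks.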

windgrass [3] = experiment: Test Example 5: herbicidal effect by foliage application, plastic box (Table 20, symbol L); assay type: in vivo, windgrass (Apera spica-venti); details: foliage application, 320 g/ha, evaluated three weeks after application
Outline: as §2

velvetleaf [4] = experiment: Test Example 5: herbicidal effect by foliage application, plastic box (Table 20, symbol M); assay type: in vivo, velvetleaf (Abutilon theophrasti); details: foliage application, 320 g/ha, evaluated three weeks after application
Outline: as §2

barnyard grass [5] = experiment: Test Example 5: herbicidal effect by foliage application, plastic box (Table 20, symbol H); assay type: in vivo, barnyard grass (Echinochloa crus-galli); details: foliage application, 320 g/ha, evaluated three weeks after application
Outline: as §2

wild oat [6] = experiment: Test Example 5: herbicidal effect by foliage application, plastic box (Table 20, symbol I); assay type: in vivo, wild oat (Avena fatua); details: foliage application, 320 g/ha, evaluated three weeks after application
Outline: as §2

southern crabgrass [7] = experiment: Test Example 5: herbicidal effect by foliage application, plastic box (Table 20, symbol F); assay type: in vivo, southern crabgrass (Digitaria ciliaris); details: foliage application, 320 g/ha, evaluated three weeks after application
Outline: as §2

Japanese bulrush = experiment: Test Example 2: herbicidal activity, application during weed generation under submerged conditions (Table 17, symbol B); assay type: in vivo, Japanese bulrush (Schoenoplectus juncoides); details: AAH 320 g/ha; application during weed generation, submerged conditions
Outline: (§3)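 3-wk visual-criteria score after one water-surface dose. Emulsion formulation, water-diluted to set rate; applied at 1–2 leaf stage; alluvial soil, 4 cm standing water; seeds co-sown; greenhouse 25–30° C.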

green foxtail [8] = experiment: Test Example 4: herbicidal effect by soil treatment (Table 19, symbol G); assay type: in vivo, green foxtail (Setaria viridis); details: amount of applied herbicide 320 g/ha
Outline: as §1

velvetleaf [9] = experiment: Test Example 4: herbicidal effect by soil treatment (Table 19, symbol M); assay type: in vivo, velvetleaf (Abutilon theophrasti); details: amount of applied herbicide 320 g/ha
Outline: as §1

late watergrass = experiment: Test Example 2: herbicidal activity, application during weed generation under submerged conditions (Table 17, symbol A); assay type: in vivo, late watergrass (Echinochloa oryzicola); details: AAH 320 g/ha; application during weed generation, submerged conditions
Outline: as §3

blackgrass [10] = experiment: Test Example 4: herbicidal effect by soil treatment (Table 19, symbol J); assay type: in vivo, blackgrass (Alopecurus myosuroides); details: amount of applied herbicide 320 g/ha
Outline: as §1

persian speedwell [11] = experiment: Test Example 5: herbicidal effect by foliage application, plastic box (Table 20, symbol R); assay type: in vivo, Persian speedwell (Veronica persica); details: foliage application, 320 g/ha, evaluated three weeks after application
Outline: as §2

oval-leafed pondweed = experiment: Test Example 2: herbicidal activity, application during weed generation under submerged conditions (Table 17, symbol C); assay type: in vivo, oval-leafed pondweed (Monochoria vaginalis); details: AAH 320 g/ha; application during weed generation, submerged conditions
Outline: as §3

redroot pigweed [12] = experiment: Test Example 4: herbicidal effect by soil treatment (Table 19, symbol N); assay type: in vivo, redroot pigweed (Amaranthus retroflexus); details: amount of applied herbicide 320 g/ha
Outline: as §1

chickweed [13] = experiment: Test Example 4: herbicidal effect by soil treatment (Table 19, symbol P); assay type: in vivo, common chickweed (Stellaria media); details: amount of applied herbicide 320 g/ha
Outline: as §1

chickweed [14] = experiment: Test Example 5: herbicidal effect by foliage application, plastic box (Table 20, symbol P); assay type: in vivo, common chickweed (Stellaria media); details: foliage application, 320 g/ha, evaluated three weeks after application
Outline: as §2

lambsquarters [15] = experiment: Test Example 5: herbicidal effect by foliage application, plastic box (Table 20, symbol O); assay type: in vivo, lambsquarters (Chenopodium album); details: foliage application, 320 g/ha, evaluated three weeks after application
Outline: as §2

barnyard grass [16] = experiment: Test Example 3: herbicidal effect by foliage application, Wagner pot (Table 18, symbol H); assay type: in vivo, barnyard grass (Echinochloa crus-galli); details: 320 g/ha
Outline: (§4)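 Plants were sown in alluvial soil held under 0.1–0.5 cm standing water and grown 14 days in a greenhouse at 25–30 °C. An emulsifiable formulation, water-diluted to the set dose, was then sprayed onto the foliage, and effects were scored three weeks later using previously defined criteria.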

Italian ryegrass [17] = experiment: Test Example 4: herbicidal effect by soil treatment (Table 19, symbol K); assay type: in vivo, Italian ryegrass (Lolium multiflorum); details: amount of applied herbicide 320 g/ha
Outline: as §1

rice flat sedge = experiment: Test Example 3: herbicidal effect by foliage application, Wagner pot (Table 18, symbol E); assay type: in vivo, rice flat sedge (Cyperus iria); details: 320 g/ha
Outline: as §4

windgrass [18] = experiment: Test Example 4: herbicidal effect by soil treatment (Table 19, symbol L); assay type: in vivo, windgrass (Apera spica-venti); details: amount of applied herbicide 320 g/ha
Outline: as §1

false cleavers [19] = experiment: Test Example 5: herbicidal effect by foliage application, plastic box (Table 20, symbol Q); assay type: in vivo, false cleavers (Galium spurium); details: foliage application, 320 g/ha, evaluated three weeks after application
Outline: as §2

blackgrass [20] = experiment: Test Example 5: herbicidal effect by foliage application, plastic box (Table 20, symbol J); assay type: in vivo, blackgrass (Alopecurus myosuroides); details: foliage application, 320 g/ha, evaluated three weeks after application
Outline: as §2

green foxtail [21] = experiment: Test Example 5: herbicidal effect by foliage application, plastic box (Table 20, symbol G); assay type: in vivo, green foxtail (Setaria viridis); details: foliage application, 320 g/ha, evaluated three weeks after application
Outline: as §2

false cleavers [22] = experiment: Test Example 4: herbicidal effect by soil treatment (Table 19, symbol Q); assay type: in vivo, false cleavers (Galium spurium); details: amount of applied herbicide 320 g/ha
Outline: as §1

redroot pigweed [23] = experiment: Test Example 5: herbicidal effect by foliage application, plastic box (Table 20, symbol N); assay type: in vivo, redroot pigweed (Amaranthus retroflexus); details: foliage application, 320 g/ha, evaluated three weeks after application
Outline: as §2

wild oat [24] = experiment: Test Example 4: herbicidal effect by soil treatment (Table 19, symbol I); assay type: in vivo, wild oat (Avena fatua); details: amount of applied herbicide 320 g/ha
Outline: as §1

southern crabgrass [25] = experiment: Test Example 4: herbicidal effect by soil treatment (Table 19, symbol F); assay type: in vivo, southern crabgrass (Digitaria ciliaris); details: amount of applied herbicide 320 g/ha
Outline: as §1

Chinese sprangletop = experiment: Test Example 3: herbicidal effect by foliage application, Wagner pot (Table 18, symbol D); assay type: in vivo, chinese sprangletop (Leptochloa chinensis); details: 320 g/ha
Outline: as §4

persian speedwell [26] = experiment: Test Example 4: herbicidal effect by soil treatment (Table 19, symbol R); assay type: in vivo, Persian speedwell (Veronica persica); details: amount of applied herbicide 320 g/ha
Outline: as §1

lambsquarters [27] = experiment: Test Example 4: herbicidal effect by soil treatment (Table 19, symbol O); assay type: in vivo, lambsquarters (Chenopodium album); details: amount of applied herbicide 320 g/ha
Outline: as §1

CCCC(=O)Oc1c(C)nn(C)c(=O)c1-c1c(-c2ccc(OC)cc2)sc2ccc(Cl)cc12 [2-104]
H: barnyard grass, herbicidal effect rating (barnyard grass [1]): 0 (Herbicidal rate of 5% or less (almost no effect))
herbicidal effect on K: Italian ryegrass (Italian ryegrass [2]): 0 (Herbicidal rate of 5% or less (almost no effect))
herbicidal effect on L: windgrass (windgrass [3]): 0 (Herbicidal rate of 5% or less (almost no effect))
herbicidal effect on M: velvetleaf (velvetleaf [4]): 3 (Herbicidal rate of 40% or more and less than 70%)
herbicidal effect on H: barnyard grass (barnyard grass [5]): 0 (Herbicidal rate of 5% or less (almost no effect))
herbicidal effect on I: wild oat (wild oat [6]): 0 (Herbicidal rate of 5% or less (almost no effect))
herbicidal effect on F: southern crabgrass (southern crabgrass [7]): 0 (Herbicidal rate of 5% or less (almost no effect))
herbicidal effect rating, B: Japanese bulrush (Japanese bulrush): 0 (Herbicidal rate of 5% or less (almost no effect))
G: green foxtail, herbicidal effect rating (green foxtail [8]): 0 (Herbicidal rate of 5% or less (almost no effect))
M: velvetleaf, herbicidal effect rating (velvetleaf [9]): 3 (Herbicidal rate of 40% or more and less than 70%)
herbicidal effect rating, A: late watergrass (late watergrass): 0 (Herbicidal rate of 5% or less (almost no effect))
J: blackgrass, herbicidal effect rating (blackgrass [10]): 0 (Herbicidal rate of 5% or less (almost no effect))
herbicidal effect on R: persian speedwell (persian speedwell [11]): 5 (Herbicidal rate of 90% or more (almost completely withered))
herbicidal effect rating, C: oval-leafed pondweed (oval-leafed pondweed): 2 (Herbicidal rate of 20% or more and less than 40%)
N: redroot pigweed, herbicidal effect rating (redroot pigweed [12]): 4 (Herbicidal rate of 70% or more and less than 90%)
P: chickweed, herbicidal effect rating (chickweed [13]): 3 (Herbicidal rate of 40% or more and less than 70%)
herbicidal effect on P: chickweed (chickweed [14]): 5 (Herbicidal rate of 90% or more (almost completely withered))
herbicidal effect on O: lambsquarters (lambsquarters [15]): 2 (Herbicidal rate of 20% or more and less than 40%)
herbicidal effect on H (barnyard grass), rating 0-5 (barnyard grass [16]): 3 (Herbicidal rate of 40% or more and less than 70%)
K: Italian ryegrass, herbicidal effect rating (Italian ryegrass [17]): 0 (Herbicidal rate of 5% or less (almost no effect))
herbicidal effect on E (rice flat sedge), rating 0-5 (rice flat sedge): 5 (Herbicidal rate of 90% or more (almost completely withered))
L: windgrass, herbicidal effect rating (windgrass [18]): 0 (Herbicidal rate of 5% or less (almost no effect))
herbicidal effect on Q: false cleavers (false cleavers [19]): 1 (Herbicidal rate of 5% or more and less than 20%)
herbicidal effect on J: blackgrass (blackgrass [20]): 0 (Herbicidal rate of 5% or less (almost no effect))
herbicidal effect on G: green foxtail (green foxtail [21]): 0 (Herbicidal rate of 5% or less (almost no effect))
Q: false cleavers, herbicidal effect rating (false cleavers [22]): 0 (Herbicidal rate of 5% or less (almost no effect))
herbicidal effect on N: redroot pigweed (redroot pigweed [23]): 3 (Herbicidal rate of 40% or more and less than 70%)
I: wild oat, herbicidal effect rating (wild oat [24]): 0 (Herbicidal rate of 5% or less (almost no effect))
F: southern crabgrass, herbicidal effect rating (southern crabgrass [25]): 0 (Herbicidal rate of 5% or less (almost no effect))
herbicidal effect on D (Chinese sprangletop), rating 0-5 (Chinese sprangletop): 0 (Herbicidal rate of 5% or less (almost no effect))
R: persian speedwell, herbicidal effect rating (persian speedwell [26]): 5 (Herbicidal rate of 90% or more (almost completely withered))
O: lambsquarters, herbicidal effect rating (lambsquarters [27]): 3 (Herbicidal rate of 40% or more and less than 70%)
